Laboratory results published in the supplement of paper PMC10307832.

Assays:
Experiment in all cases: relative viability (nuclei count vs DMSO), 5 days (fraction); higher = more cells survive
[1] = compound: CC1=C(CC(=O)O)c2cc(F)ccc2/C1=C\c1ccc([S+](C)[O-])cc1 [Sulindac]
Procedure, shortened: (§1)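 A plate was accepted only when its control CV was below 25% and the cells had doubled at least once. Viability is defined from nuclear counts as treated wells divided by vehicle wells, with the median taken across plates. That median covers lung cancer cell lines grown in 1536-well plates, dosed by pinning at five √10-spaced library-drug concentrations, and counted in MetaXpress from 4× Hoechst images after 5 days.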

[2] = compound: CN[C@@H]1C[C@H]2O[C@@](C)([C@@H]1OC)n1c3ccccc3c3c4c(c5c6ccccc6n2c5c31)C(=O)NC4 [Staurosporine]
Procedure, shortened: as §1

[3] = compound: O=c1[nH]cc(F)c(=O)[nH]1 [5-Fluorouracil]
Procedure, shortened: as §1

Cell Line | relative viability ([1]; 0.08 µM) | relative viability ([1]; 0.253 µM) | relative viability ([1]; 0.8 µM) | relative viability ([1]; 2.53 µM) | relative viability ([1]; 8 µM) | relative viability ([2]; 0.005 µM) | relative viability ([2]; 0.01581 µM) | relative viability ([2]; 0.05 µM) | relative viability ([2]; 0.1581 µM) | relative viability ([2]; 0.5 µM) | relative viability ([3]; 0.02 µM) | relative viability ([3]; 0.2 µM) | relative viability ([3]; 0.6325 µM) | relative viability ([3]; 2 µM)
LCLC-103H | 1.08 | 1.09 | 0.902 | 0.955 | 1.06 | 0.973 | 0.336 | 0.393 | 0.233 | 0.234 | 1.05 | 0.976 | 0.889 | 0.577
LK-2 | 1.23 | 1.06 | 0.78 | 0.738 | 1.21 | 1.17 | 1.06 | 0.874 | 0.366 | 0.243 | 1.16 | 0.989 | 0.8 | 0.574
LOU-NH91 | 0.989 | 0.982 | 0.944 | 0.922 | 1.11 | 0.921 | 0.603 | 0.613 | 0.294 | 0.275 | 0.99 | 1.1 | 0.734 | 0.39
LU99A | 1.02 | 0.982 | 0.922 | 0.845 | 1.09 | 0.912 | 0.569 | 0.422 | 0.211 | 0.131 | 0.943 | 0.999 | 0.845 | 0.624
LXF-289 | 1.11 | 1.05 | 0.994 | 1.02 | 1.08 | 1.02 | 0.652 | 0.477 | 0.0851 | 0.127 | 0.961 | 0.912 | 0.434 | 0.301
NCI-H23 | 1.19 | 0.802 | 0.701 | 0.799 | 1.15 | 0.704 | 0.139 | 0.367 | 0.164 | 0.117 | 1 | 1.13 | 0.601 | 0.387
NCI-H322M | 0.951 | 0.921 | 0.869 | 0.903 | 0.989 | 1.13 | 0.491 | 0.58 | 0.387 | 0.344 | 0.954 | 0.923 | 0.791 | 0.651
NCI-H358 | 0.918 | 1.01 | 0.74 | 0.999 | 1.16 | 1.03 | 0.326 | 0.203 | 0.117 | 0.104 | 1 | 1.05 | 0.882 | 0.584
NCI-H441 | 1.34 | 1.25 | 0.78 | 1.09 | 1.37 | 0.889 | 0.275 | 0.266 | 0.18 | 0.129 | 0.887 | 0.866 | 0.591 | 0.385
NCI-H460 | 1.29 | 1.06 | 0.906 | 0.976 | 1.06 | 0.963 | 0.762 | 0.824 | 0.0553 | 0.0329 | 0.99 | 0.72 | 0.165 | 0.0713
NCI-H520 | 1.16 | 1.08 | 0.891 | 0.957 | 1.06 | 1.14 | 0.706 | 0.698 | 0.272 | 0.163 | 0.923 | 1.06 | 0.73 | 0.516
NCI-H522 | 0.911 | 1.19 | 0.834 | 0.912 | 1.14 | 1 | 0.686 | 0.782 | 0.501 | 0.437 | 1.03 | 1 | 0.83 | 0.855
NCI-H596 | 0.975 | 1.03 | 0.846 | 1.02 | 1.04 |  | 0.54 | 0.792 | 0.204 | 0.151 | 1.01 | 0.981 | 0.718 | 0.439
NCI-H647 | 1.32 | 1.15 | 0.791 | 0.898 | 1.11 | 0.546 | 0.317 | 0.295 | 0.0837 | 0.059 | 1 | 1.11 | 0.842 | 0.623
NCI-H650 | 1.1 | 1.04 | 0.91 | 0.849 | 1.27 | 0.63 | 0.321 | 0.236 | 0.229 | 0.252 | 0.904 | 0.648 | 0.411 | 0.381
NCI-H661 | 1.13 | 1.05 | 0.989 | 1 | 0.965 | 1.02 | 0.722 | 0.555 | 0.364 | 0.238 | 0.998 | 1.04 | 0.954 | 0.992
NCI-H727 | 0.963 | 0.923 | 0.741 | 0.9 | 1.01 | 0.736 | 0.554 | 0.381 | 0.345 | 0.22 | 0.925 | 1.19 | 0.846 | 0.774
NCI-H838 | 1.05 | 1.04 | 0.879 | 0.94 | 1.07 | 0.447 | 0.315 | 0.221 | 0.189 | 0.126 | 0.879 | 1.03 | 0.597 | 0.387
NCI-H1299 | 1.13 | 1.09 | 0.908 | 1.05 | 1.08 | 0.815 | 0.491 | 0.284 | 0.207 | 0.137 | 1.1 | 1.05 | 0.955 | 0.703
NCI-H1355 | 1.02 | 1.06 | 0.873 | 0.971 | 1.08 | 0.856 | 0.238 | 0.363 | 0.197 | 0.159 | 0.925 | 0.877 | 0.438 | 0.309
NCI-H1395 | 1.11 | 0.968 | 0.938 | 0.804 | 1.14 | 0.609 | 0.364 | 0.488 | 0.331 | 0.253 | 0.899 | 1.03 | 0.937 | 0.826
NCI-H1437 | 1.14 | 1.02 | 0.857 | 1.01 | 1.17 | 0.918 | 0.705 | 0.704 | 0.306 | 0.153 | 0.626 | 0.289 | 0.25 | 0.216
NCI-H1563 | 0.898 | 0.973 | 0.936 | 0.967 | 1.14 | 0.724 | 0.592 | 0.542 | 0.547 |  | 0.952 | 1.01 | 1 | 0.815
NCI-H1623 | 0.896 | 0.963 | 0.936 | 0.961 | 1 | 1.14 | 1.12 | 1.08 | 0.932 | 0.519 | 0.581 | 0.355 | 0.283 | 0.267
